Entries after “also recorded” stand apart in the source; their conditions may differ.
Columns and labels:
[1] = test system: SH-EP neuroblastoma cells; assay: Cell cycle of SH-EP neuroblastoma cells; type: cell-based; conditions: 15 nM vs control cells
Procedure: (§1) FIG. 2: Influence of HC-Toxin upon proliferation, cell cycle, and apoptosis of SH-EP neuroblastoma cells.
(§2) An increase in apoptotic cells from 5% to 20% was observed after 48 h to 72 h of HC-toxin treatment in a dose dependent manner (FIG. 2c).

[2] = test system: SH-EP neuroblastoma cells; assay: Apoptosis of SH-EP neuroblastoma cells; type: cell-based; conditions: FIG. 2c
Procedure: as §1, §2

[3] = test system: MYCN stably transfected SH-EP-neuroblastoma cells (WAC2); assay: Proliferation of MYCN stably transfected SH-EP neuroblastoma cells WAC2; type: cell-based; conditions: stronger inhibition than in SH-EP
Procedure: (§3) FIG. 4: Influence of HC-Toxin upon the proliferation of MYCN amplified neuroblastoma cells and cells, which overexpress MYCN. (a) BE(2)-C neuroblastoma cells, (b) WAC2 neuroblastoma cells, and (c) Tet21N neuroblastoma cells.
(§4) MYCN amplified neuroblastoma cells (Be(2)-C), MYCN stably transfected SH-EP-neuroblastoma cells (WAC2) as well as SH-EP cells having an tetracycline inducible MYCN (Tet21N) were treated by HC-Toxin.

[4] = test system: SH-EP neuroblastoma cells; assay: Neuronal differentiation of SH-EP neuroblastoma cells (phase contrast microscopy, immunocytochemistry); type: cell-based
Procedure: FIG. 1: HC-Toxin induces neuronal differentiation in SH-EP MYCN-single copy neuroblastoma cells. Cells with neurites longer than twice the diameter of the cell body have been deemed as differentiated cells.
(§5) 5×10*4 SH-EP neuroblastoma cells were cultured in RPMI 1640 medium (including 10% FBS, 1% Pen/Strep). After 24 hours of culture, the cells were treated up to 96 h with 10 to 20 nM HC-Toxin or, as solvent control, with methanol (MeOH) at 37° C., 5% CO2. The morphological changes of the cells were investigated using phase contrast microscopy. After 36 h of treatment, neurite outgrowth was observed. After 72 h of treatment, said neurite outgrowth reached its maximum and was constant if treatment was prolonged (not shown). […] More than 95% of the SH-EP neuroblastoma cells differentiate morphologically when treated with 15 nM HC-Toxin (see FIG. 1c).

[5] = test system: SH-EP neuroblastoma cells; assay: Proliferation of SH-EP neuroblastoma cells; type: cell-based; conditions: 10 to 20 nM
Procedure: as §1, §5, §2

[6] = test system: MYCN amplified neuroblastoma cells (Be(2)-C); assay: Proliferation of MYCN amplified neuroblastoma cells Be(2)-C; type: cell-based; conditions: stronger inhibition than in SH-EP
Procedure: as §3, §4

[7] = test system: nuclear histone deacetylases; assay: Accumulation of acetylated histone H4 in SH-EP cells (Western blot); type: cell-based; conditions: 6 h, 15 mM HC-Toxin [sic]
Procedure: The cells were treated for 6 hours with HC-toxin or the indicated histone deacetylase inhibitors as well as all-trans retinoic acid. Whole-cell extracts were obtained and subjected to Western-Blot analysis using an antibody, which specifically recognizes acetylated histone H4 (H4 Acetyl).
SH-EP-neuroblastoma cells were treated with […] HC-Toxin for 6 h. Subsequently, accumulation of acetylated histone H4 was investigated.

[8] = test system: SH-EP cells having an tetracycline inducible MYCN (Tet21N); assay: Proliferation of SH-EP cells with tetracycline inducible MYCN (Tet21N); type: cell-based; conditions: stronger inhibition than in SH-EP
Procedure: as §3, §4

[9] = test system: primary skin fibroblasts; assay: Cell cycle of primary non-transformed skin fibroblasts; type: cell-based, human; conditions: 15 nM vs methanol control
Procedure: (§6) FIG. 3: Influence of HC-Toxin upon proliferation and cell cycle of primary non-transformed skin fibroblasts.
(§7) In order to determine the effects of HC-Toxin on “normal” body cells, primary skin fibroblasts were treated under the same conditions.

[10] = test system: primary skin fibroblasts; assay: Proliferation of primary non-transformed skin fibroblasts; type: cell-based, human; conditions: 10-20 nM, same conditions as SH-EP
Procedure: as §6, §7

[11] = test system: various tumour cells; assay: Antitumoral effects in tumour cells, general statements and comparison with other agents; type: cell-based; conditions: higher concentration
Procedure: The differentiation inducing agent all-trans retinoic acid has to be administered in a 1000-fold higher concentration compared to HC-toxin, acts differently as compared with compounds of the general formula (I) and causes side effects known as the retinoic acid syndrome.
The compounds having a structure as shown in the general formula (I) elicit the aforementioned antitumoral effects in an extremely low dosage already, i.e. at nanomolar concentrations (5-20 nM), in various tumour cells. The mode of action of the compounds apparently encompasses inhibition of histone deacetylases. This finding is supported by the observation that treatment of MYCN single copy and amplified neuroblastoma cells with a compound of the present invention in nanomolar concentration (e.g. 15 nM) leads to the accumulation of acetylated H4-histones within one to six hours being an indicator for a histone deacetylase inhibitor.

[12] = test system: various tumour cells; conditions: cited from earlier work

CC1NC(=O)C(C)NC(=O)C2CCCN2C(=O)C(CCCCCC(=O)C2CO2)NC1=O (stereo not drawn) [HC-Toxin, Helminthosporium carbonum toxin]
cell cycle distribution of SH-EP cells [1]: accumulation of the HC-Toxin treated cells in the G0/1 phase
induction of apoptosis in SH-EP cells [2]: induces apoptosis in a concentration dependent manner
inhibition of proliferation of WAC2 cells [3]: efficiently inhibits proliferation
SH-EP neuroblastoma cells that differentiate morphologically ([4]; 15 nM HC-Toxin, neurites longer than twice the diameter of the cell body): More than 95%
time of treatment after which neurite outgrowth reached its maximum ([4]; 10 to 20 nM, SH-EP cells): 72 h
time of treatment after which neurite outgrowth was observed ([4]; 10 to 20 nM, SH-EP cells): 36 h
inhibition of SH-EP neuroblastoma cell proliferation [5]: inhibits cell proliferation in a concentration dependent manner; also recorded: concentration-dependent inhibition
inhibition of proliferation of Be(2)-C cells [6]: efficiently inhibits proliferation
accumulation of acetylated histone H4 [7]: induces hyperacetylation of histone H4
accumulation of acetylated histone H4 ([7]; listed as iHC-Toxin): induce accumulation of acetylated histone H4
inhibition of proliferation of Tet21N cells [8]: efficiently inhibits proliferation
cell cycle of primary skin fibroblasts [9]: does not alter the cell cycle; also recorded: No significant changes
proliferation of primary skin fibroblasts [10]: No significant changes
proliferation of primary skin fibroblasts ([10]; listed as HC-toxin): has no influence upon the proliferation

CC1=C(/C=C/C(C)=C/C=C/C(C)=C/C(=O)O)C(C)(C)CCC1 [all-trans retinoic acid, reference compound]
accumulation of acetylated histone H4 [7]: no induction of hyperacetylation of histone H4
concentration to be administered compared to HC-toxin [11]: 1000 fold

CC(/C=C/C(=O)NO)=C\[C@@H](C)C(=O)c1ccc(N(C)C)cc1 [trichostatin A]
cytotoxic effects [12]: strong cytotoxic effects

CCCC(CCC)C(=O)O [valproic acid]
efficient concentration ([12]; not achievable in vivo): only efficient in millimolar concentrations

Source: patent publication US20090082258A1, “Means and Methods for Treating Advanced Stage Neuroblastoma” (priority 2005, published 2009)
